One block for each molecule: values may come before it.
How the values were obtained:
[1] = target: Tryptophan 2,3-dioxygenase (Mus musculus, UniProt P48776); assay: Inhibition of mouse TDO
[2] = target: Indoleamine 2,3-dioxygenase 1 (Mus musculus, UniProt P28776); assay: Inhibition of mouse IDO1
[3] = target: T1, Indoleamine 2,3-dioxygenase 2 (Homo sapiens, UniProt Q6ZQW0); assay: Inhibition of human IDO2
T1 sequence (Q6ZQW0 whole entry): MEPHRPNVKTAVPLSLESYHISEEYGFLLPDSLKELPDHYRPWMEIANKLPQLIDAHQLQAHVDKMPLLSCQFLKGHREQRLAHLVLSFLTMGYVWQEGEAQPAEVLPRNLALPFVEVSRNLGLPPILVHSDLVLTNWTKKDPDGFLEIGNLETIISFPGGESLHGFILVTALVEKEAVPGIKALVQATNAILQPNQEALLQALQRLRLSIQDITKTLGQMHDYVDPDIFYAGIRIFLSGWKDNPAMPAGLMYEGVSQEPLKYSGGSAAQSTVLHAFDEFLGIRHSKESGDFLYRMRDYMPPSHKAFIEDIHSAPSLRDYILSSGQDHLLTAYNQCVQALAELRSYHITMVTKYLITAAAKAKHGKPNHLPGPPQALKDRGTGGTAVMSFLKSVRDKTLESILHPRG

[4] = target: Tryptophan 2,3-dioxygenase (Homo sapiens, UniProt P48775); assay: Inhibition of TDO (unknown origin)
[5] = target: T2, Kynurenine 3-monooxygenase (Saccharomyces cerevisiae (strain ATCC 204508 / S288c) (Baker's yeast), UniProt P38169); assay: Inhibition of yeast KMO
T2 sequence (P38169 whole entry): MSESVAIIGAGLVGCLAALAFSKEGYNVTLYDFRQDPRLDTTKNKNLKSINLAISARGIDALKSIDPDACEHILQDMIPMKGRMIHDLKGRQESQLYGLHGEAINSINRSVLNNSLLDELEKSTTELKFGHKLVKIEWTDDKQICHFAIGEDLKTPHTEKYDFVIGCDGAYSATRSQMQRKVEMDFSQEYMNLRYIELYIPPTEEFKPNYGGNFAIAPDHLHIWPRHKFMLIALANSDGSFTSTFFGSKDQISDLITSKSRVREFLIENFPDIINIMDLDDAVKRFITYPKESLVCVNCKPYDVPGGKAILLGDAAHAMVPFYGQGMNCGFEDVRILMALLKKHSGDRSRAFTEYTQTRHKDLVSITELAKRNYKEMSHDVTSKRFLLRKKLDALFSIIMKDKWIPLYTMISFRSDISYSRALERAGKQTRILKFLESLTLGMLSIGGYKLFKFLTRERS

[6] = target: Kynurenine 3-monooxygenase (Homo sapiens, UniProt O15229); assay: Inhibition of human KMO
[7] = target: Kynurenine/alpha-aminoadipate aminotransferase, mitochondrial (Rattus norvegicus, UniProt Q64602); assay: Inhibition of rat KAT-2
Chain of Kynurenine/alpha-aminoadipate aminotransferase, mitochondrial (Q64602 whole entry): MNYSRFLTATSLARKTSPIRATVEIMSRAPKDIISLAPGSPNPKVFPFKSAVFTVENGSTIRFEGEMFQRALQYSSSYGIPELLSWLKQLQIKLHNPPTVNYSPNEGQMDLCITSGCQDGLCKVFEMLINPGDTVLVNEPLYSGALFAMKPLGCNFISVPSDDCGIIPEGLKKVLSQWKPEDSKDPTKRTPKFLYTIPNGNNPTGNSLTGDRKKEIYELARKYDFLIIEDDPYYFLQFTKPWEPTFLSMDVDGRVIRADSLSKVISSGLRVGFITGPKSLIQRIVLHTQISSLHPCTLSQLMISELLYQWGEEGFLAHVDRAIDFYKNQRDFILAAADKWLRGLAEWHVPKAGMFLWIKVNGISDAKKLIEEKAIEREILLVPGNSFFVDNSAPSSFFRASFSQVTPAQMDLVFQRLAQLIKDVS

Chain of Indoleamine 2,3-dioxygenase 1 (P28776 whole entry): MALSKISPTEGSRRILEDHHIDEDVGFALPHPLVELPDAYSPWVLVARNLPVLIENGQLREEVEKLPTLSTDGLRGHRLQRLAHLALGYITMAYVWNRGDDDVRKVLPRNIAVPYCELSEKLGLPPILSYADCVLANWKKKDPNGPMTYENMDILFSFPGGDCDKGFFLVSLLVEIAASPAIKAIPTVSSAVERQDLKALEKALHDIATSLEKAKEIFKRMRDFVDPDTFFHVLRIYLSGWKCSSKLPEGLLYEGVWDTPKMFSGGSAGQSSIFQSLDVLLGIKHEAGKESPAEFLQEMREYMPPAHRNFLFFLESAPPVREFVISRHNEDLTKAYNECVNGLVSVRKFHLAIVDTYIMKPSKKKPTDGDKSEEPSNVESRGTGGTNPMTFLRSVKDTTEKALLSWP
Chain of Tryptophan 2,3-dioxygenase (Homo sapiens, UniProt P48775) (P48775 whole entry): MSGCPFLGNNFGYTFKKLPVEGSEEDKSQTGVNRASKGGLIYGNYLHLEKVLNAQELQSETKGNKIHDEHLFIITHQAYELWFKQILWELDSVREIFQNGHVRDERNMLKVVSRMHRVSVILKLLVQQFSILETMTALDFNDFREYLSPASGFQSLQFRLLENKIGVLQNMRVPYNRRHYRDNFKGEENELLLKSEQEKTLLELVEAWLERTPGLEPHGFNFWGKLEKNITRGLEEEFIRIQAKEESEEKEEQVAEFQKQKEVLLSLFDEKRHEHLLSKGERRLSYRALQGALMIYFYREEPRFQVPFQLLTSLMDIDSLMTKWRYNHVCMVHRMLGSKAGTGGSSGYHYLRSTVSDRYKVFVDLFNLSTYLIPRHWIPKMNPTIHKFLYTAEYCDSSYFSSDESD
Chain of Tryptophan 2,3-dioxygenase (Mus musculus, UniProt P48776) (P48776 whole entry): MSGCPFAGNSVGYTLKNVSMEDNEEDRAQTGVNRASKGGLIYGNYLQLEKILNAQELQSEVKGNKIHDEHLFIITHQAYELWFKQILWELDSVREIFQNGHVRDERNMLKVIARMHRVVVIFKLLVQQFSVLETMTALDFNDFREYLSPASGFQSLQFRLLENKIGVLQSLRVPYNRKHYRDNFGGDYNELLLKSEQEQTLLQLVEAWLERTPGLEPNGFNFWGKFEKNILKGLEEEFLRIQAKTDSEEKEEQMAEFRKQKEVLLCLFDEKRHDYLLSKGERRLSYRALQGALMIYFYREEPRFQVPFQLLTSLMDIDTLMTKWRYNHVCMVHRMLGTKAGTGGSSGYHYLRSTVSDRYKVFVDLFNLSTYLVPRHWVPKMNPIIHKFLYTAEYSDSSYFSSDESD
Chain of Kynurenine 3-monooxygenase (Homo sapiens, UniProt O15229) (O15229 whole entry): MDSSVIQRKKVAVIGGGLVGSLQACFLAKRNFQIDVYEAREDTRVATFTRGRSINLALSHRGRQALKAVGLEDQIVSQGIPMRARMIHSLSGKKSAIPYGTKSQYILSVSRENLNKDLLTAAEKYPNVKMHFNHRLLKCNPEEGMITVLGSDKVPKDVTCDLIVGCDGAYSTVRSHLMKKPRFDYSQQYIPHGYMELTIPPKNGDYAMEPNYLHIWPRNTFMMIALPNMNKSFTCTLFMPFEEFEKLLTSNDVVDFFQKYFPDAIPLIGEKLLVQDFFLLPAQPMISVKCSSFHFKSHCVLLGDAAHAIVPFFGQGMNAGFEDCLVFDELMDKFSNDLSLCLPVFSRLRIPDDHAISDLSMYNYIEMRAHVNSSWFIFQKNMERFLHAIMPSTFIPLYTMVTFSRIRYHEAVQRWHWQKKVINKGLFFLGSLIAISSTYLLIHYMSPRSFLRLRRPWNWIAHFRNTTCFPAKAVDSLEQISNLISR

SMILES: O=C(CC1c2ccccc2-c2cncn21)C1CCCCC1 (stereo unspecified)
IC50 [4]: < 1 µM

SMILES: O=C(O)C1CC1C(=O)c1ccc(Cl)c(Cl)c1 (stereo unspecified)
IC50 [5]: 0.074 µM | IC50 [6]: 0.02 µM

SMILES: CCS(=O)(=O)c1ccc(C(=O)C[C@H](N)C(=O)O)cc1
IC50 [7]: 71 µM

SMILES: O=C1NC(=O)/C(=C/c2cccc(-c3ccc4c5c3CCC(=O)N5CC4)c2)S1
IC50 [7]: 13.4 µM

Further lines, results first:

IC50 [1]: 1.96 µM | IC50 [2]: > 400 µM
SMILES: Fc1ccc2c(/C=C/c3nnn[nH]3)c[nH]c2c1

IC50 [3]: > 250 µM | IC50 [4]: > 62.5 µM
SMILES: Cc1ccc(-c2csc3nnc(SCC(=O)Nc4ccc5c(c4)OCO5)n23)cc1

IC50 [1]: 1.46 µM | IC50 [2]: > 80 µM
SMILES: Fc1ccc2c(/C=C/c3cccnc3)c[nH]c2c1

Reference: ChEMBL document CHEMBL3627665, “Challenges and Opportunities in the Discovery of New Therapeutics Targeting the Kynurenine Pathway” (J Med Chem, 2015)
